In US8551984B2, “Aminopyrimidines as SYK inhibitors” (Merck Sharp & Dohme Corp., priority 2009, dated 2013):
Read-outs that look alike come from different tables or passages of the source.

Target: rhSYK (Homo sapiens, UniProt P43405)
[1] = read-out: rhSYK Activity, class symbol, where two forms are listed, one symbol per form
[2] = read-out: rhSYK Activity, Table 119, two symbols in a cell = one per listed form
[3] = read-out: rhSYK activity, class symbol given

| Compound | IC50 [1] [µM] | also measured |
| --- | --- | --- |
| OC1(c2ncc(-c3cccc(Nc4nccc(C(F)(F)F)n4)c3)s2)CC2COCC(C1)N2Cc1ccccc1 (stereo not shown) [Example 4B-9] | 1 to 10 | – |
| Cc1cc(Nc2nccc(C(F)(F)F)n2)cc(-c2cnc([C@]3(O)CC[C@@H](CO)CC3)s2)c1 [Example 4C-8] | < 0.1 | – |
| Cc1cc(Nc2ncc(F)c(C)n2)cc(-c2cnc(C(C)(O)CO)s2)c1 (stereo not shown) [Ex 5-8] | < 0.1 | – |
| Cc1cc(Nc2nccc(C(F)(F)F)n2)cc(-c2cnc(C3(O)CCC(C(N)=O)C3)s2)c1 (single isomer, unassigned) [Example 119-1] | – | IC50 [2]: < 0.1 µM |
| OC(c1ncc(-c2cccc(Nc3nccc(C(F)(F)F)n3)c2)s1)(C1CCCCC1)C(F)(F)F (stereo not shown) [Example 4A-11] | 1 to 10 | – |
| Cc1cc(Nc2nccc(C(F)(F)F)n2)cc(-c2cnc(C(O)(CF)CF)s2)c1 [Example 4A-34] | < 0.1 | – |
| Cc1cc(Nc2nccc(C(F)(F)F)n2)cc(-c2cnc(C(C)(O)CO)s2)c1 (stereo not shown) [Ex 5-5] | < 0.1 | – |
| Cc1cc(Nc2nccc(C(F)(F)F)n2)cc(-c2cnc(C(C)(O)CO)s2)c1 (stereo not shown) [Ex 5-6] | < 0.1 | – |
| CN(C)CC(C)(O)c1ncc(-c2cccc(Nc3nccc(C(F)(F)F)n3)c2)s1 (stereo not shown) [Example 4A-14] | 0.1 to 1 | – |
| Cc1cc(Nc2nccc(C)n2)cc(-c2cnc(C3(O)C4CC5CC3CN(C5)C4)s2)c1 (stereo not shown) [Example 4B-17] | 0.1 to 1 | – |
| N#CCCC1CCCCC1(O)c1ncc(-c2cccc(Nc3nccc(C(F)(F)F)n3)c2)s1 (stereo not shown) [Example 4B-6] | 0.1 to 1 | – |
| Cc1cc(Nc2nccc(C)n2)cc(-c2cnc(C(O)(CO)CO)s2)c1 [Example 4A-39] | < 0.1 | – |
| COc1ccnc(Nc2cc(C)cc(-c3cnc(C(C)(O)c4ccc(C(=O)O)cc4)s3)c2)n1 (stereo not shown) [Example 4A-79] | < 0.1 | – |
| Cc1cc(Nc2nccc(C(F)(F)F)n2)cc(-c2cnc(C(C)(O)c3ccc(S(=O)(=O)N(C)C)cc3)s2)c1 (stereo not shown) [Example 4A-73] | 0.1 to 1 | – |
| Cc1cc(Nc2nccc(C(F)(F)F)n2)cc(-c2cnc([C@]3(O)CC[C@@](C)(O)CC3)s2)c1 [9(2), cis-1-methyl-4-[5-(3-methyl-5-{[4-(trifluoromethyl)pyrimidin-2-yl]amino}phenyl)-1,3-thiazol-2-yl]cyclohexane-1,4-diol] | – | IC50 [3]: < 0.1 µM |
| Cc1cc(Nc2nccc(C(F)(F)F)n2)cc(-c2cnc(C3(O)CCC(NC(=O)C4CCC(=O)O4)CC3)s2)c1 (stereo not shown) [Example 4C-31] | < 0.1 | – |
| Cc1cc(Nc2nccc(C(F)(F)F)n2)cc(-c2cnc(C3(O)CCC(CC(C)(C)C(=O)O)CC3)s2)c1 (stereo not shown) [Example 4C-26] | < 0.1 | – |
| Cc1cc(Nc2nccc(C(F)(F)F)n2)cc(-c2cnc(C3(O)CC4C(Br)CC3C4C(=O)O)s2)c1 (stereo not shown) [Example 4B-53] | < 0.1 | – |
| Cc1cc(Nc2ncc(Cl)cn2)cc(-c2cnc(C(C)(O)CO)s2)c1 (stereo not shown) [Ex 5-11] | 0.1 to 1 | – |
| Cc1cc(Nc2nccc(C(F)(F)F)n2)cc(-c2cnc([C@]3(O)CC[C@](C)(O)CC3)s2)c1 [Example 9(1), trans-1-methyl-4-[5-(3-methyl-5-{[4-(trifluoromethyl)pyrimidin-2-yl]amino}phenyl)-1,3-thiazol-2-yl]cyclohexane-1,4-diol] | – | IC50 [3]: < 0.1 µM |
| Cc1cc(Nc2nccc(C(F)(F)F)n2)cc(-c2cnc(C(C)(O)CCCC(=O)O)s2)c1 (stereo not shown) [Example 4A-47] | < 0.1 | – |
| C=CCCC(O)c1ncc(-c2cc(C)cc(Nc3nccc(C(F)(F)F)n3)c2)s1 (stereo not shown) [Example 4A-42] | < 0.1 | – |
| COc1ccnc(Nc2cc(C)cc(-c3cnc(C4(O)CCC(C(N)=O)C(C)(C)C4)s3)c2)n1 (stereo not shown) [Example 119-13] | – | IC50 [2]: < 0.1 µM |

| Compound | IC50 [1] [µM] | also measured |
| --- | --- | --- |
| OC(c1ccccc1)(c1ncc(-c2cccc(Nc3nccc(C(F)(F)F)n3)c2)s1)C(F)F (stereo not shown) [Example 4A-7] | 0.1 to 1 | – |
| Cc1cc(Nc2nccc(C(F)(F)F)n2)cc(-c2cnc(C(O)CCC#N)s2)c1 (stereo not shown) [Example 4A-41] | < 0.1 | – |
| CCOC(=O)C1CCCC(O)(c2ncc(-c3cc(C)cc(Nc4nccc(C(F)(F)F)n4)c3)s2)C1 (stereo not shown) [Example 4C-21] | 0.1 to 1 | – |
| Cc1cc(Nc2nccc(C(F)(F)F)n2)cc(-c2cnc(C(C)(O)Cc3ccc(C(=O)O)cc3)s2)c1 (stereo not shown) [Example 4A-61] | < 0.1 | – |
| Cc1cc(Nc2nccc(C(F)(F)F)n2)cc(-c2cnc(C3(O)CCC(C(=O)O)CC3)s2)c1 (stereo not drawn) [33(1)-NA, Sodium cis-4-hydroxy-4-[5-(3-methyl-5-{[4-(trifluoromethyl)pyrimidin-2-yl]amino}phenyl)-1,3-thiazol-2-yl]cyclohexanecarboxylate] | – | IC50 [3]: < 0.1 µM |
| O=C(c1ccccc1)N1CCC(O)(c2ncc(-c3cccc(Nc4nccc(C(F)(F)F)n4)c3)s2)CC1 [4D-6] | < 0.1 | – |
| OC(c1ncc(-c2cccc(Nc3nccc(C(F)(F)F)n3)c2)s1)C1CCCC1 (stereo not shown) [Example 4A-15] | 0.1 to 1 | – |
| Cc1cc(Nc2nccc(C(F)(F)F)n2)cc(-c2cnc(C(C)(O)c3ccc([N+](=O)[O-])cc3)s2)c1 (stereo not shown) [Example 4A-56] | 0.1 to 1 | – |
| Cc1cc(Nc2ncc(F)c(C)n2)cc(-c2cnc(C(C)(O)CO)s2)c1 (stereo not shown) [Ex 5-10] | < 0.1 | – |
| CN(C)CC(C)(C)C(O)c1ncc(-c2cccc(Nc3nccc(C(F)(F)F)n3)c2)s1 (stereo not shown) [Example 4A-8] | 0.1 to 1 | – |
| Cc1cc(Nc2nccc(C(F)(F)F)n2)cc(-c2cnc(C3(O)CCC(C(N)=O)CC3)s2)c1 (stereo not drawn) [38(2), cis-4-hydroxy-4-[5-(3-methyl-5-{[4-(trifluoromethyl)pyrimidin-2-yl]amino}phenyl)-1,3-thiazol-2-yl]cyclohexanecarboxamide] | – | IC50 [3]: < 0.1 µM |
| OC(c1ccccn1)(c1nccs1)c1ncc(-c2cccc(Nc3nccc(C(F)(F)F)n3)c2)s1 (stereo not shown) [Example 4A-30] | 0.1 to 1 | – |
| COC(=O)c1ccc(C(C)(O)c2ncc(-c3cc(C)cc(Nc4nccc(C(F)(F)F)n4)c3)s2)cc1OC (stereo not shown) [Example 4A-72] | 0.1 to 1 | – |
| OC(c1ncc(-c2cccc(Nc3nccc(C(F)(F)F)n3)c2)s1)C(F)(F)F (stereo not shown) [Example 6-2] | < 0.1 | – |
| Cc1cc(Nc2nccc(C(F)(F)F)n2)cc(-c2cnc(C(=O)CCC(=O)CCO)s2)c1 [Example 4B-62] | 0.1 to 1 | – |
| Cc1cc(Nc2nccc(C(F)(F)F)n2)cc(-c2cnc(C3(O)CCN(C(=O)OC(C)(C)C)CC3)s2)c1 [Example 45, tert-butyl-4-hydroxy-4-[5-(3-methyl-5-{[4-(trifluoromethyl)pyrimidin-2-yl]amino}phenyl)-1,3-thiazol-2-yl]piperidine-1-carboxylate] | – | IC50 [3]: 0.1 to 1 µM |
| Cc1cc(Nc2nccc(C(F)(F)F)n2)cc(-c2cnc(C(C)(O)c3ccc(Br)nc3)s2)c1 (single isomer, unassigned) [Example 4A-68] | < 0.1 | – |
| CCC(O)(c1ncc(-c2cccc(Nc3nccc(C(F)(F)F)n3)c2)s1)C(F)(F)F (stereo not shown) [Example 4A-9] | < 0.1 | – |
| OC1(c2ncc(-c3cc(Nc4nccc(C(F)(F)F)n4)ccc3OC(F)(F)F)s2)CCC1 [Example 1-3] | 0.1 to 1 | – |
| Cc1cc(Nc2nccc(C(F)(F)F)n2)cc(-c2cnc(C(O)(CO)C(F)(F)F)s2)c1 (single isomer, unassigned) [Example 6-8] | < 0.1 | – |
| Cc1cc(Nc2nccc(C(F)(F)F)n2)cc(-c2cnc(C(C)(O)CC(C)N)s2)c1 (stereo not shown) [Example 4A-45] | < 0.1 | – |
| Cc1cc(Nc2nccc(C(F)(F)F)n2)cc(-c2cnc(C(C)(O)c3ccc(N4CC(C(=O)O)CC4=O)cc3)s2)c1 (stereo not shown) [Example 4A-78] | < 0.1 | – |
| Cc1cc(Nc2nccc(C(F)(F)F)n2)cc(-c2cnc(C(C)(O)c3ccc(Br)nc3)s2)c1 (single isomer, unassigned) [Example 4A-69] | < 0.1 | – |
